Key:
[1] = system: Free Fatty Acid Receptor 1 (FFAR1, GPR40); design: method as in PMID 21752941; settings: preclinical models; cited from earlier work
[2] = design: method as in PMID 25787200; settings: humans, phase III study; cited from earlier work
[3] = molecular target: T1, human GPR142 (Homo sapiens, UniProt Q7Z601); assay: IP-1 accumulation assay in HEK293 cells stably expressing human GPR142; type: cell-based
T1 construct: expressed in transfected cells
T1 sequence (Q7Z601 1-374 isoform Q7Z601-2): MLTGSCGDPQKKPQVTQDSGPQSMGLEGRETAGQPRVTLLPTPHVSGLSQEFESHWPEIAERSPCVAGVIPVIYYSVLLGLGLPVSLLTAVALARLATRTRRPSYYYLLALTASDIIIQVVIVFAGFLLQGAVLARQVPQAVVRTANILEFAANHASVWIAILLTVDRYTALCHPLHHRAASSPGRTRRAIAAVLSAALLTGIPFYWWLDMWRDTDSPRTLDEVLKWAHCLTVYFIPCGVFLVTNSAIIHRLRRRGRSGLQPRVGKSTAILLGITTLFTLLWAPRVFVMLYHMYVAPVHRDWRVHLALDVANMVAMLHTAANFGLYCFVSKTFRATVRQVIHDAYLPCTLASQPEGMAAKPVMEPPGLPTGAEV
Procedure: (§1) HEK293 cells obtained from ATCC were used to generate cell lines stably expressing human GPR142 or mouse Gpr142 by transfecting cells with pcDNA3.1 expression vectors containing each cDNA. Cells expanded from single clones were maintained in DMEM containing 10% fetal bovine serum (FBS) and 800 μg/ml G418. Untransfected control HEK293 cells were maintained in DMEM containing 10% FBS. Cells were plated in 384 well plates at 5000 cells per well and allowed 18 hours for attachment. After addition of compounds, cells were incubated for 1 hour. IP-1 measurements were performed using an HTRF assay kit (Cisbio) according to manufacturer’s protocol using assay buffer containing 1 × HBSS (Hank’s Balanced Salt Solution, +Ca, +Mg), 0.1% bovine serum albumin (BSA), 50 mM LiCl and 20 mM HEPES (4-(2-hydroxyethyl)-1-piperazineethanesulfonic acid), pH 7.2. The reaction was stopped by addition of IP1-d2 followed by cryptate solution and the plates were incubated at 25°C for 1 hour. Fluorescence was read in an Envision instrument at 665 nm and 620 nm. The ratio of 665 nm/620 nm was calculated and converted to IP-1 levels using a standard curve method. The data was fit to 4-parameter fit logistics to determine EC50 values.

[4] = molecular target: T2, mouse GPR142 (Mus musculus, UniProt Q7TQN9); assay: IP-1 accumulation assay in HEK293 cells stably expressing mouse Gpr142; type: cell-based
T2 sequence (Q7TQN9 67-365 limits assumed): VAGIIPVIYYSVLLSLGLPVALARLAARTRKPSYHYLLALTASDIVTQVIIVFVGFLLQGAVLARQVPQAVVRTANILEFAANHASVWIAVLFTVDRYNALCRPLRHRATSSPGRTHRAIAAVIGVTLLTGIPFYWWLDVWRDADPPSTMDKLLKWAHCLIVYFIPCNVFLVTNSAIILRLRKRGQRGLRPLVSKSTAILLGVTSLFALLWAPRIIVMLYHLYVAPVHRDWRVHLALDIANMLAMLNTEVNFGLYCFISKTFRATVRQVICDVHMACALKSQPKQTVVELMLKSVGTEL
Procedure: as §1

[5] = system: untransfected control HEK293 cells; assay: IP-1 accumulation in untransfected control HEK293 cells; type: cell-based; settings: Fig 1B
Procedure: as §1

[6] = system: murine pancreatic islets; assay: Insulin secretion in isolated murine pancreatic islets (WT and Gpr142 KO); type: cell-based, mouse; settings: 11.1 mM glucose, 1 hour
Procedure: Secretion was stopped by refrigerating the plates at 4°C for 3 minutes. Supernatant was removed from the wells and assayed for insulin levels using the MA6000 Mouse/Rat Insulin Kit (Meso Scale Discovery).

[7] = system: human pancreatic islets; assay: Insulin secretion in isolated human pancreatic islets; type: cell-based; settings: 11 mM glucose, 1 hour, non-diabetic donor
Excerpt: Human pancreatic islets were purchased from Prodo Labs at the Scharp-Lacy Research Institute (Irvine, CA, www.prodolabs.com) through the Integrated Islet Distribution Program in accordance with internal review board (IRB) ethical guidelines for use of human tissue. Islets were isolated at Prodo Labs from human pancreata from listed cadaver organ donors that were refused for primary human pancreas transplantation or isolated islets transplantion into listed diabetic recipients. […] The next day day islets were incubated for 30 min in EBSS buffer containing 0.1% BSA and 3 mM glucose. […] Islets were cultured for 60 min at 37°C. The incubation was stopped by chilling the samples on ice. The culture media was removed and stored at -20°C until its insulin concentration was measured. Insulin was measured using a custom built immunoassay (Meso Scale Discovery).

[8] = Glucose tolerance test (IPGTT/OGTT) after oral dosing in mice; type: in vivo, mouse
Procedure: (§2) Mice were fasted overnight and allowed free access to water. […] Tail blood glucose levels were measured at indicated time points using handheld glucometers. For incretin hormone measurements, blood was collected via cardiac bleeds into EDTA-tubes containing DPP-4 inhibitor (Millipore) and protease inhibitor cocktail (Thermo Fisher). For insulin measurements during GTT, blood was collected from the tail.

[9] = Plasma insulin and incretin hormone levels after oral dosing in mice; type: in vivo, mouse
Procedure: as §2
Immunoassays were used to measure total GIP (Millipore, ELISA), total GLP-1, and insulin (Meso Scale Discovery). Enzymatic assays were used to measure TG, beta-hydroxybutarate (Sigma-Aldrich), and total cholesterol (Thermo Fisher). HDL-cholesterol was determined in the supernatant after removal of LDL/vLDL-cholesterol by a precipitation reagent (Sigma-Aldrich); non-HDL-cholesterol was determined by subtracting HDL from total cholesterol. Free fatty acids were measured by GC-MS.

[10] = system: Calcium-sensing receptor (CaSR); design: method as in PMID 24812056; settings: rats; cited from earlier work
[11] = 500 mg/kg p.o. 15 minutes prior to glucose 2 g/kg i.p.
[12] = 500 mg/kg p.o. 15 minutes prior to glucose 2 g/kg p.o.
[13] = 500 mg/kg p.o., 10 minutes after dosing, vs WT
[14] = 150 or 500 mg/kg p.o., overnight fasted normal C57 male mice

Cc1cc(OCCCS(C)(=O)=O)cc(C)c1-c1cccc(COc2ccc3c(c2)OC[C@H]3CC(=O)O)c1 [TAK-875]
glucose-dependent insulin secretion [1]: stimulate glucose-dependent insulin secretion | glycemic control [2]: improve glycemic control

N[C@@H](Cc1c[nH]c2ccccc12)C(=O)O [L-Tryptophan]
IP-1 accumulation in HEK-hGPR142 cells ([3]; Fig 1A, 1B): stimulated IP-1 accumulation | Emax ([3]; HEK293, relative efficacy normalized to maximal response of L-Tryptophan (100%), read-out: HEK293-hGPR142 Emax): 100% | EC50 ([3]; IP-1 accumulation, 1 hour, 170 nM to 30 mM, read-out: HEK293-hGPR142 EC50): 2100 µM | IP-1 accumulation in HEK-mGPR142 cells [4]: stimulated IP-1 accumulation | Emax ([4]; HEK293, relative efficacy normalized to maximal response of L-Tryptophan (100%), read-out: HEK293-mGPR142 Emax): 100% | EC50 ([4]; IP-1 accumulation, 1 hour, 170 nM to 30 mM, read-out: HEK293-mGPR142 EC50): 620 µM | IP-1 accumulation in untransfected control HEK293 cells [5]: had no effect | insulin secretion in Gpr142 KO islets compared with WT islets [6]: significantly blunted | insulin secretion in WT murine islets [6]: dose-dependently stimulated the release of insulin | insulin secretion in human primary islets [7]: robustly stimulated insulin secretion | glucose excursion during IPGTT in Gpr142 KO mice [8, 11]: no significant effect | glucose excursion during IPGTT in WT mice [8, 11]: suppressed glucose excursion | glucose excursion during OGTT in Gpr142 KO mice [8, 12]: no significant effect | glucose excursion during OGTT in WT mice [8, 12]: suppressed glucose excursion | GIP release in Gpr142 KO mice [9, 13]: no L-Trp-dependent release | insulin release in Gpr142 KO mice [9, 13]: no L-Trp-dependent release | plasma GLP-1 in Gpr142 KO mice [9, 13]: increased GLP-1 in KO mice to a similar extent as in WT | time of peak plasma insulin, GIP and GLP-1 concentrations after dosing ([9]; 150 or 500 mg/kg p.o., normal C57 male mice): 5 to 10 min | plasma GIP level [9, 14]: rapidly and dose-dependently increased | plasma GLP-1 level [9, 14]: rapidly and dose-dependently increased | plasma insulin level [9, 14]: rapidly and dose-dependently increased

C[C@@H](NCCCc1cccc(C(F)(F)F)c1)c1cccc2ccccc12 [Cinacalcet]
glucose [10]: lower glucose

From paper PMC4920590, “GPR142 Controls Tryptophan-Induced Insulin and Incretin Hormone Secretion to Improve Glucose Metabolism” (PLoS ONE, 2016)
